Measured values reported in publication PMC12226970, “A subcellularly targeted photocaged inhibitor for mitochondrial carbonic anhydrase V” (Dalton Transactions (Cambridge, England : 2003), 2025).

Biological target: T1, bCA-II (Bos taurus, UniProt P00921)
T1 construct: gene CA2
Experiment: NPA (4-nitrophenyl acetate) hydrolysis assay with isolated bCA-II after […] nm photodeprotection of PCEM
Format: biochemical

T1 sequence (P00921 2-260): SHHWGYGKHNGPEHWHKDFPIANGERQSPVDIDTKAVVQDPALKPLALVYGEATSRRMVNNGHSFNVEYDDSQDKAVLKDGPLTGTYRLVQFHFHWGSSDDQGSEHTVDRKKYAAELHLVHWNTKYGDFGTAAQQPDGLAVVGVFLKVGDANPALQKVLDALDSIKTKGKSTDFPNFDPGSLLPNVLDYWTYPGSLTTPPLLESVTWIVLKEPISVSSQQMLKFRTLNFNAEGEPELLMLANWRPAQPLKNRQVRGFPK

An IC50 of 2900 nM was found for `NS(=O)(=O)c1nc2ccc(OCCC[n+]3ccccc3)cc2s1` [dPCEM] in this work.
